14 compounds from PubChem BioAssay (NCI) can be followed below.

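Growth conditions: 96-well plates. Treatment: test compound, 48 hours, 5 concentrations. Analysis: linear interpolation between bracketing concentrations; unreached endpoints set to highest concentration. TGI is the concentration that stops growth completely.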 Bounds are passed on as bounds.

Test systems include HCC-2998 colon; HCT-116 colon; HOP-92 NSCLC; NCI-H226 lung; OVCAR-3 ovarian; OVCAR-5 ovarian; SF-295 CNS; SK-MEL-28 melanoma; SNB-19 CNS; SNB-75 CNS; UACC-62 melanoma.
Test in all cases: NCI tumour cell line growth inhibition, 48 h

As to `CC(=O)C1=C(C)NC2C=CC=CN12` (centres undefined), the TGI in the test on HCC-2998 colon, in the test on HCT-116 colon, with HOP-92 NSCLC, with NCI-H226 lung, in the test on OVCAR-3 ovarian and in the test on OVCAR-5 ovarian was > 100 µM each time. Besides, the TGI in the test on SF-295 CNS, in the test on SK-MEL-28 melanoma, with SNB-19 CNS, with SNB-75 CNS and in the test on UACC-62 melanoma was > 100 µM throughout.
On to `COc1ccc(/C=N/N=C(\N)NO)c(O)c1`, for which the TGI in the test on HCC-2998 colon, in the test with HCT-116 colon, in the test on HOP-92 NSCLC, with NCI-H226 lung, with OVCAR-3 ovarian and in the test with OVCAR-5 ovarian was > 10 µM throughout. In addition, the TGI with SF-295 CNS is > 10 µM; in the test on SK-MEL-28 melanoma it was > 10 µM; in the test with SNB-19 CNS, > 10 µM; in the test on SNB-75 CNS, 2.42 µM; with UACC-62 melanoma, > 10 µM.
As to `COC(=O)C1=CC(=O)OC1(OO)c1ccccc1` (centres undefined), the TGI with HCC-2998 colon, in the test on HCT-116 colon, in the test on HOP-92 NSCLC, in the test on NCI-H226 lung, in the test with OVCAR-3 ovarian and with OVCAR-5 ovarian was > 100 µM throughout. In addition, the TGI with SF-295 CNS, in the test with SK-MEL-28 melanoma, with SNB-19 CNS, in the test with SNB-75 CNS and with UACC-62 melanoma was > 100 µM in each case.
As for `Nc1ccc(N=Nc2ccccc2)cc1`, the TGI in the test with HCC-2998 colon is > 100 µM; in the test with HCT-116 colon, > 100 µM; in the test with HOP-92 NSCLC it was > 100 µM; in the test with NCI-H226 lung, > 100 µM; with OVCAR-3 ovarian, 69.1 µM; in the test on OVCAR-5 ovarian, > 100 µM. Besides, the TGI with SF-295 CNS is 57.1 µM; with SK-MEL-28 melanoma, > 100 µM; with SNB-19 CNS it was > 100 µM; in the test with SNB-75 CNS it was 56 µM; in the test with UACC-62 melanoma, > 100 µM.
`COc1ccc(O)cc1`: the TGI with HCC-2998 colon, in the test on HCT-116 colon, in the test on HOP-92 NSCLC, with NCI-H226 lung, with OVCAR-3 ovarian and in the test on OVCAR-5 ovarian was > 100 µM throughout. Further, the TGI is > 100 µM in the test on SK-MEL-28 melanoma, > 100 µM in the test on SNB-19 CNS, > 100 µM with SNB-75 CNS and 87.1 µM with UACC-62 melanoma.
Take `CC(=O)N1N=C(c2ccc3ccccc3c2O)CC1C(=O)c1ccco1` (centres undefined): the TGI with HCC-2998 colon was 55.5 µM; in the test with HCT-116 colon, > 100 µM; in the test with HOP-92 NSCLC, > 100 µM; in the test with NCI-H226 lung, > 100 µM; in the test with OVCAR-3 ovarian, > 100 µM; in the test with OVCAR-5 ovarian, > 100 µM. In addition, the TGI was > 100 µM in the test on SF-295 CNS, > 100 µM in the test on SK-MEL-28 melanoma, > 100 µM in the test with SNB-75 CNS and 62.6 µM with UACC-62 melanoma.
As for `CC(C)C(=O)/C=C/c1ccc(Br)cc1`, the TGI in the test with HCC-2998 colon was 30.9 µM; in the test with HCT-116 colon it was 17.4 µM; with HOP-92 NSCLC, 30.9 µM; in the test on OVCAR-3 ovarian it was 27.3 µM; in the test with OVCAR-5 ovarian it was 27.5 µM; in the test with SF-295 CNS, 29.9 µM. Besides, the TGI in the test with SK-MEL-28 melanoma came out at 41 µM; in the test on SNB-19 CNS, 29.8 µM; in the test on SNB-75 CNS, 32.8 µM; in the test with UACC-62 melanoma, 28 µM.
In the case of `O=C1OC2(OC2c2ccccc2)c2ccccc21` (centres undefined), the TGI in the test on HCC-2998 colon, in the test on HCT-116 colon, with HOP-92 NSCLC, with NCI-H226 lung, in the test on OVCAR-3 ovarian and in the test on OVCAR-5 ovarian was > 100 µM each time. Moreover, the TGI with SK-MEL-28 melanoma, in the test with SNB-19 CNS, in the test with SNB-75 CNS and with UACC-62 melanoma was > 100 µM throughout.
Consider `CCCCCC(=O)NC(=S)Nc1nn[nH]n1`, for which the TGI with HCC-2998 colon, in the test on HCT-116 colon, in the test on HOP-92 NSCLC, with OVCAR-3 ovarian, in the test with OVCAR-5 ovarian and in the test with SF-295 CNS was > 100 µM in each case. The TGI in the test with SK-MEL-28 melanoma, in the test on SNB-19 CNS, in the test on SNB-75 CNS and with UACC-62 melanoma was > 100 µM in each case.
For `O=C(NCCCCCCNCc1cccc2ccccc12)Nc1cccc2ccccc12`, the TGI with HCC-2998 colon, in the test on HCT-116 colon, in the test on HOP-92 NSCLC, in the test on OVCAR-3 ovarian, with OVCAR-5 ovarian and with SF-295 CNS was > 100 µM each time. The TGI with SK-MEL-28 melanoma, in the test on SNB-19 CNS, in the test on SNB-75 CNS and in the test with UACC-62 melanoma was > 100 µM each time.
For the compound `O=C1CCCCC(=O)OC2(CCCCC2=O)CC1` (centres undefined), the TGI in the test with HCC-2998 colon, in the test with HCT-116 colon, with HOP-92 NSCLC, with NCI-H226 lung, in the test on OVCAR-3 ovarian and with OVCAR-5 ovarian was > 100 µM in each case. In addition, the TGI in the test on SF-295 CNS, in the test on SK-MEL-28 melanoma, in the test on SNB-75 CNS and in the test with UACC-62 melanoma was > 100 µM throughout.
With `Cc1cn(C2CC(n3cc(Cn4cc(Br)c(=O)[nH]c4=O)nn3)C(CO)O2)c(=O)[nH]c1=O` (centres undefined), the TGI in the test on HCC-2998 colon, in the test with HCT-116 colon, in the test on HOP-92 NSCLC, with OVCAR-3 ovarian, in the test with OVCAR-5 ovarian and in the test on SF-295 CNS was > 100 µM in each case. For the same compound, the TGI with SK-MEL-28 melanoma, with SNB-19 CNS, with SNB-75 CNS and with UACC-62 melanoma was > 100 µM in each case.
`CN(C)Cc1cc(C(=O)/C=C/c2ccccc2Cl)cc(CN(C)C)c1O`: the TGI came out at 36.6 µM in the test with HCC-2998 colon; 19.8 µM in the test with HCT-116 colon; 39.6 µM with HOP-92 NSCLC; 48.2 µM in the test on NCI-H226 lung; 30.5 µM with OVCAR-3 ovarian; 40.2 µM in the test with OVCAR-5 ovarian. Moreover, the TGI in the test with SF-295 CNS was 28.3 µM; in the test with SK-MEL-28 melanoma, 27.9 µM; with SNB-19 CNS, 27.2 µM; in the test on SNB-75 CNS, 19.7 µM.
On to `CCOC(=O)c1ccc(N2C(=S)N(C(=O)c3ccccc3)C(=Nc3ccccc3)C2=Nc2ccccc2)cc1`, for which the TGI in the test on HCC-2998 colon is > 100 µM; in the test on HOP-92 NSCLC, 78.7 µM; in the test on NCI-H226 lung, 52.7 µM; with OVCAR-3 ovarian it was > 100 µM; with OVCAR-5 ovarian, > 100 µM; in the test with SF-295 CNS it was > 100 µM. Further, the TGI was > 100 µM with SK-MEL-28 melanoma, > 100 µM in the test with SNB-19 CNS, 74.6 µM in the test with SNB-75 CNS and > 100 µM in the test with UACC-62 melanoma.
